Two compounds from EP4663191A1, “USE OF TYROSINE KINASE INHIBITOR” (Qilu Animal Health Products Co., Ltd., priority 2023, dated 2024) can be followed below.

The subject of data set [1] is mouse mast cell tumor P815 cells. Description: In vivo efficacy in DBA/2 mouse model of subcutaneous homologous transplantation of P815 cells. The conditions noted are these: for Tumor volume (mm^3): average ±SEM; for TGI: Day 8, vs vehicle control. The source says:
Test sample: the dimaleate of the compound of formula (I) of the present application (content: 99.7%), and Toceranib phosphate (content: 98.2%, commercially available), the concentration and dosage of administration of the test sample prepared in the following implementation are all calculated in terms of free alkali.
Test animal: the species is mouse; the strain is DBA/2 mouse; the age is 6-8 weeks old, and the weight is 19-24 g; and the gender is female.
Experimental methods and steps: mouse mast cell tumor P815 cells (ATCC-TIB-64) were adherent and cultured in vitro. The culture conditions were DMEM medium, 10 vol% fetal bovine serum, 1 vol% double antibody, and cultured in a cell incubator at 37 °C with 5% CO2. Conventional digestion treatment and passage were carried out twice a week with trypsin-EDTA. When the cell saturation reached 80-90% and the quantity satisfied the requirements, the cells were collected, counted and inoculated.
0.1 mL of PBS containing 5×10^5 P815 cells was subcutaneously inoculated into the subcutaneous area of the right forelimb axilla of each mouse. At day 8 after cell inoculation, when the average tumor volume reached 100 mm^3, group administration was started. The experiment was grouped into a negative control group (without an active ingredient), an administration group, and a positive control group (with the active ingredient Toceranib), with 8 mice in each group. The negative control (vehicle), the dimaleate of the compound of formula (I), and Toceranib phosphate were administered orally once daily for an 8-day administration period. Health status and mortality of animals were monitored every day. Routine examinations included observing the effects of tumor growth and drug treatment on daily behavioral performance of animals, such as behavioral activities, food and water intake (only visually), weight changes (measuring weight twice a week), appearance signs or other abnormal conditions. Table 1. Preparation methods of the test samples
Table 2. Grouping of experimental animals and administration protocols
The experimental indicators were to examine whether the tumor growth was inhibited, delayed or cured. The diameter of the tumor was measured with a vernier caliper. The calculation formula for tumor volume was: V = 0.5a × b^2 , [formula] wherein a and b represented the long diameter and the short diameter of the tumor, respectively. The anti-tumor efficacy of the compound was determined by TGI (%). TGI (%) reflects the rate of tumor growth inhibition. Calculation of TGI (%): TGI (%) = [1-(Average tumor volume at the end of administration in a certain treatment group - Average tumor volume at the start of administration in this treatment group) / (Average tumor volume at the end of treatment in the vehicle control group - Average tumor volume at the start of treatment in the vehicle control group)] ×100%.

Data set [2] is described as follows: Adverse reactions and safety in dogs with mast cell tumors under treatment (VCOG-CTCAE). In kind it is in vivo. How it is done: (§1) Since May 2021, a total of 14 dogs with mast cell tumors have been collected and enrolled for treatment with a dimaleate of the compound of formula (I). Table 4: Clinical staging criteria for canine cutaneous mast cell tumors
(§2) The affected dogs with mast cell tumor were administered with the drug of the dimaleate of the compound of formula (I) at a dose of 2.0 mg/kg to 3.25 mg/kg (all doses were calculated based on free base, the same below), orally once every other day. For affected dogs with assessable solid tumors, baseline assessment was performed before the first trial medication. After the administration of the first trial medication, mass measurement and blood routine examination were performed every 2 weeks, and blood biochemical examination and imaging examination were performed every 4 weeks to evaluate the response to tumor treatment until disease progression, intolerable drug withdrawal due to treatment-related side effects, or death of enrolled dogs, and to evaluate the efficacy and safety of the compound of formula (I) in the treatment of a canine mast cell tumor and a breast tumor. The primary observation endpoints: objective response rate (ORR), disease control rate (DCR), progression-free survival (PFS), and overall survival (OS); complete response (CR), partial response (PR), stable disease (SD), and progressive disease (PD).
(Adverse event assessment criteria refer to VCOG-CTCAE (Veterinary cooperative oncology group-common terminology criteria for adverse events (VCOG-CTCAE) following chemotherapy or biological antineoplastic therapy in dogs and cats v1.1. Vet Comp Oncol. 2016)).

A further data set relates to canine mast cell tumor. Description: Anti-tumor effect in dogs with mast cell tumors (clinical cases). In kind it is in vivo. How it is done: as §1, §2
The test system of data set [3] is mouse mast cell tumor cells P815 cells (ATCC-TIB-64). The data set can be described thus: MTT assay (thiazolyl blue colorimetric assay), inhibition of tumor cell proliferation. It counts as cell-based. How it is done: Test sample: the dimaleate of the compound of formula (I) of the present application.
The inhibition effect of the dimaleate of the compound of formula (I) on the growth of mouse mast cell tumor cells P815 cells (ATCC-TIB-64) was detected by MTT assay (thiazolyl blue colorimetric assay), and IC50 (half inhibitory concentration) was calculated and obtained.

[4] abbreviates: 14 dogs, 2.0 mg/kg to 3.25 mg/kg orally once every other day, n=4.

Several values for one entry are separate records, joined by “and”; a condition that tells them apart may be missing. Identical values can stand only once.

What is called TGI is how far tumour growth fell short of that in controls. Read a high TGI as much slowing of growth. Take `Cc1[nH]c(/C=C2\C(=O)Nc3ccc(F)cc32)c(C)c1C(=O)NCCN1CCCC1` [Toceranib, reference compound]: the “Tumor volume (mm^3)” value is 100±4 mm^3 in data set [1] (Day 0 after administration, 40mg/kg PO QD); 127±6 mm^3 in data set [1] (Day 2 after administration, 40mg/kg PO QD); 231±14 mm^3 in data set [1] (Day 4 after administration, 40mg/kg PO QD); 299±15 mm^3 in data set [1] (Day 6 after administration, 40mg/kg PO QD); 510 mm^3 and 510±38 mm^3 in data set [1] (Day 8 after administration, 40mg/kg PO QD, 40 mg/kg). Further, the TGI in data set [1] (40 mg/kg PO QD, p < 0.001) was 43.38%.

As usually defined, the IC50 is the concentration that gives 50% inhibition. A higher IC50 goes with weaker potency. As to `Cc1[nH]c(/C=C2\C(=O)Nc3ccc(F)cc32)c(C)c1NC(=O)CCN1CCN(C)CC1` [dimaleate of the compound of formula (I), N-(5-((Z)-(5-fluoro-2-carbonylindole-3-ylidene)methyl)-2,4-dimethyl-1H-pyrrol-3-yl)-3-(4-methylpiperazin-1-yl) propanamide], the “blood in urine (treatment-related clinical adverse reaction)” value in data set [2] (14 dogs, 2.0 mg/kg to 3.25 mg/kg orally once every other day, n=1, occasionally) is 7.1%. For the same compound, the “vomiting (treatment-related clinical adverse reaction)” value in data set [2] (14 dogs, 2.0 mg/kg to 3.25 mg/kg orally once every other day, n=3) worked out at 21.4%. Also, in data set [2] (setting [4]), the “blood in stool (treatment-related clinical adverse reaction)” value turned out to be 28.6%. Besides, in data set [2] (setting [4]), the “decreased appetite (treatment-related clinical adverse reaction)” value was found to be 28.6%. Also, the “diarrhea (treatment-related clinical adverse reaction)” value in data set [2] (14 dogs, 2.0 mg/kg to 3.25 mg/kg orally once every other day, n=9) was 64.3%. The “grade 3 or 4 adverse reactions” value in data set [2] (14 dogs, VCOG-CTCAE v1.1) is listed as “No grade 3 or 4 adverse reactions were observed”. The “blood routine and serum biochemistry” value was “no obvious abnormality was seen compared with the baseline” in data set [2] (Case 2 Tibetan mastiff, 2.84 mg/kg, June 21) and “no obvious abnormalities were found” in data set [2] (Case 4 Golden Retriever, re-examined February 13, April 10, June 6 (August 7: blood routine only)). Also, in data set [2] (Case 4 Golden Retriever, stage I, no c-kit mutation, 2.4 mg/kg from January 2), the “adverse effects after administration” value is given as “no significant adverse effects were observed”. Further, the “adverse reactions after medication” value is “no obvious adverse reactions occurred after medication” in data set [2] (Case 4 Golden Retriever, 2.3 mg/kg from April 10 and from June 6); “no obvious adverse reactions occurred after medication” in data set [2] (Case 5 Golden Retriever, 2.25 mg/kg from October 15). Besides, the “adverse reactions after taking the medicine” value in data set [2] (Case 4 Golden Retriever, continued at 2.4mg/kg from February 13) is “symptoms of soft stool and diarrhea occurred”. For the same compound, the “adverse reactions during treatment” value in data set [2] (Case 5 Golden Retriever, 2.75 mg/kg, reported at October 15) is “Thin and watery stools occurred during a period”. Further, the “adverse reactions after dosing” value in data set [2] (Case 5 Golden Retriever, 3.25 mg/kg from September 3) is recorded as “soft stools appeared once after dosing”; in data set [2] (Case 5 Golden Retriever, dosage adjusted to 2.75 mg/kg on September 7), “no significant adverse reactions after dosing”. In addition, in the data set on canine mast cell tumor (Case 1 Golden Retriever, 3.07 mg/kg, 14 days (October 17)), the “mass decreased compared with the baseline” value came to 12%. Moreover, the “recurrence of the mass” value in the data set on canine mast cell tumor (Case 1 Golden Retriever, after excision, 2.63 mg/kg, postoperative days 47, 82, 117 and 145) is given as “no recurrence of the mass was seen on the skin”. The survival period entry with canine mast cell tumor (Case 1 Golden Retriever, as of March 28, 2022, 66 doses) is on record as “greater than 176 days”; in the data set with canine mast cell tumor (Case 3 Labrador, as of April 17, 2022, medication 51 times) it was “greater than 126 days”; in the data set on canine mast cell tumor (Case 4 Golden Retriever, 2.3-2.4 mg/kg, still under therapy), “greater than 259 days”. The same compound yielded a total survival period in the data set on canine mast cell tumor (Case 2 Tibetan mastiff, 2.84 mg/kg, died September 18, 2021) of 117 days. Also, the “mass on the cephalic side of the vulva” value with canine mast cell tumor (Case 3 Labrador, 2.42 mg/kg, after 14 days, non-target lesion) is recorded as “significantly reduced”. Also, the “enlargement of the mass on the cephalic side of the vulva” value in the data set with canine mast cell tumor (Case 3 Labrador, day 42 and day 77 of treatment, non-target lesion) is “No enlargement”. In addition, the Nasal ultrasound result in the data set with canine mast cell tumor (Case 4 Golden Retriever, re-examined August 7) is listed as “subcutaneous mass accompanied by invasive changes in adjacent turbinate bone”; in the data set with canine mast cell tumor (Case 4 Golden Retriever, re-examined June 6), “subcutaneous mass is suspected of invading the nasal cavity”. Moreover, in data set [3], the IC50 was determined as 474 nM. In addition, the “Tumor volume (mm^3)” value is reported as 100±4 mm^3 in data set [1] (Day 0 after administration, 20mg/kg PO QD); 141±22 mm^3 in data set [1] (Day 2 after administration, 20mg/kg PO QD); 244±35 mm^3 in data set [1] (Day 4 after administration, 20mg/kg PO QD); 319±55 mm^3 in data set [1] (Day 6 after administration, 20mg/kg PO QD); 483 ±93 mm^3 in data set [1] (Day 8 after administration, 20mg/kg PO QD, listed as Compound of formula (I), 20 mg/kg); 483 mm^3 in data set [1] (Day 8 after administration, 20mg/kg PO QD, listed as compound of formula (I), 20 mg/kg). Moreover, the inhibition of tumour growth (TGI) in data set [1] (20 mg/kg PO QD, p = 0.003) stood at 47.25%.
